Data as given in patent US6906035B2, “Antimicrobial cationic peptides” (priority 1995, dated 2005).
Where “and” joins values, the source holds several entries; their conditions need not be identical. Identical values can stand only once. Like-named read-outs stand apart in the source and are kept apart here. Ends that are not written are not given here.

Key:
[1] = test system: A. calcoaceticus; details: agent alone
Method: (§1) FICs are performed by checkerboard titrations of peptides in one dimension of a microtiter plate, and of antibiotics in the other dimension, for example. The FIC is calculated by looking at the impact of one antibiotic on the MIC of the other and vice versa. […] Preferably, an FIC of less than 0.5 is obtained for synergism. As used herein, FIC can be determined as follows: [formula]
(§2) Synergism is identified as an FIC of about ≦0.5.

[2] = test system: X. maltophila; assay: organism not typed; details: agent alone
Method: as §1, §2

[3] = test system: P. aeruginosa; assay: microbe, parasite or virus in culture; details: agent alone
Method: as §1, §2

[4] = test system: E. cloacae; details: agent alone
Method: as §1, §2

[5] = test system: P. aeruginosa; details: for MIC H103: MBI 29 and MBI21 derivatives; for MIC: P. aeruginosa (H187), Table 1a
Method: as §1
(§3) Briefly, cells were grown overnight at 37° C. in LB-S (Luria broth without any salt supplement) and diluted one in 10,000 in the same medium to give concentrations of about 10^4 to 10^5 CFU/ml. The broth dilutions were set up in a 96 well microtiter plate by putting 200 μl of LB-S containing the initial concentration of antibiotic or compound in column 1 and 100 μl of the same medium in columns 2-12. The compounds were diluted by taking 100 μl of broth from column 1 and mixing it with column 2, resulting in a one in two dilution. This was continued to column 10. Finally, 10 μl of bacteria were pipetted into columns 1-11, and the plates incubated overnight at 37° C. The next day the plates were scored for growth in the wells, and the MIC determined.

[6] = test system: S. epidermis; details: for MIC S. epi 0017: MBI 29 and MBI21 derivatives; for MIC: S. epidermis, Table 1a
Method: as §1, §3

[7] = test system: C610; assay: MIC, broth dilution in LB-S; type: cell-based, S. typhimurium; details: MBI 29 and MBI21 derivatives
Method: (§4) The biological activity of the peptides can be determined by standard methods known to those of skill in the art, such as “minimal inhibitory concentration (MIC)” assay described in the present examples, whereby the lowest concentration at which no change in OD is observed for a given period of time is recorded as MIC. Alternatively, “fractional inhibitory concentration (FIC)” is also useful for determination of synergy between the peptides of the invention, or the peptides in combination with known antibiotics. FICs are performed by checkerboard titrations of peptides in one dimension of a microtiter plate, and of antibiotics in the other dimension, for example. The FIC is calculated by looking at the impact of one antibiotic on the MIC of the other and vice versa. […] Preferably, an FIC of less than 0.5 is obtained for synergism. As used herein, FIC can be determined as follows: [formula]
as §3

[8] = test system: E. coli; assay: MIC, broth dilution in LB-S; type: cell-based; details: for MIC E. coli 0111:B4: MBI 29 and MBI21 derivatives; for MIC: E. coli (UB1005), Table 1a
Method: as §4, §3

[9] = test system: E. faecalis; assay: MIC, broth dilution in LB-S; type: cell-based; details: MBI 29 and MBI21 derivatives
Method: as §4, §3

[10] = test system: S. aureus; assay: MIC, broth dilution in LB-S; type: cell-based; details: for MIC K147 / MIC SAP: MBI 29 and MBI21 derivatives; for MIC: Table 1a
Method: as §4, §3

[11] = test system: B. Subtilis; assay: MIC, broth dilution in LB-S; type: cell-based; details: MBI 29 and MBI21 derivatives
Method: as §4, §3

[12] = test system: Candida albicans; assay: MIC, broth dilution in LB-S; type: cell-based; details: Candida alibicans (CAN105); Table 1a
Method: as §1, §3

[13] = A. calcoaceticus isolate 1, strain ATCC 23055
[14] = X. maltophila isolate 35, strain 6
[15] = X. maltophila isolate 36, strain 16
[16] = X. maltophila isolate 38, strain 7901
[17] = X. maltophila isolate 39, strain B3110.1
[18] = X. maltophila isolate 40, strain R1302-1
[19] = X. maltophila isolate 41, strain R4230
[20] = X. maltophila isolate 43, strain TF29-2
[21] = X. maltophila isolate 45, strain W11291
[22] = P. aeruginosa isolate 24, strain 34
[23] = P. aeruginosa isolate 27, strain 14644
[24] = P. aeruginosa isolate 28, strain 15036
[25] = P. aeruginosa isolate 30, strain B3999-1
[26] = X. maltophila isolate 44, strain W6896-2
[27] = E. cloacae isolate 14, strain 938-2
[28] = E. cloacae isolate 18, strain 3077
[29] = X. maltophila isolate 37, strain 3095
[30] = X. maltophila isolate 42, strain TF29-1
[31] = P. aeruginosa isolate 23, strain ATCC 27853
[32] = P. aeruginosa isolate 25, strain 923-1
[33] = P. aeruginosa isolate 26, strain 3101
[34] = P. aeruginosa isolate 32, strain W2897-1
[35] = P. aeruginosa isolate 31, strain U7688-1

## CC(C)(O/N=C(\C(=O)N[C@@H]1C(=O)N2C(C(=O)[O-])=C(C[n+]3ccccc3)CS[C@H]12)c1csc(N)n1)C(=O)O [Ceftazidime]
[1]; [13]
  MIC: 4 µg/mL
[1]; A. calcoaceticus isolate 5, strain 8220
  MIC: 8 µg/mL
[2]; [14]
  MIC: 32 µg/mL
[2]; [15]
  MIC: 16 µg/mL
[2]; [16]
  MIC: 256 µg/mL
[2]; [17]
  MIC: 128 µg/mL
[2]; [18]
  MIC: 32 µg/mL
[2]; [19]
  MIC: 8 µg/mL
[2]; [20]
  MIC: 2 µg/mL
[2]; [21]
  MIC: 128 µg/mL and 256 µg/mL
[3]; [22]
  MIC: 64 µg/mL
[3]; [23]
  MIC: 256 µg/mL
[3]; [24]
  MIC: 4 µg/mL
[3]; [25]
  MIC: 8 µg/mL

## O=C(O)c1cn(C2CC2)c2cc(N3CCNCC3)c(F)cc2c1=O [Ciprofloxacin]
[2]; [26]
  MIC: 8 µg/mL
[3]; [24]
  MIC: 32 µg/mL

## C[C@@H](O)[C@H]1C(=O)N2C(C(=O)O)=C(SCCN=CN)C[C@H]12 [Imipenem]
[4]; E. cloacae isolate 12, strain ATCC 13047
  MIC: 2 µg/mL
[4]; [27]
  MIC: 2 µg/mL
[4]; [28]
  MIC: 2 µg/mL
[4]; E. cloacae isolate 19, strain 3356
  MIC: 2 µg/mL
[4]; E. cloacae isolate 20, strain 14269
  MIC: 2 µg/mL
[1]; A. calcoaceticus isolate 3, strain 27
  MIC: 512 µg/mL
[1]; A. calcoaceticus isolate 4, strain 28
  MIC: 8 µg/mL
[1]; A. calcoaceticus isolate 7, strain 8222
  MIC: 2 µg/mL
[1]; A. calcoaceticus isolate 11, strain 8226
  MIC: 2 µg/mL
[2]; X. maltophila isolate 34, strain ATCC 13637
  MIC: 512 µg/mL
[2]; [14]
  MIC: 512 µg/mL
[2]; [15]
  MIC: 512 µg/mL
[2]; [29]
  MIC: 512 µg/mL
[2]; [16]
  MIC: 512 µg/mL
[2]; [17]
  MIC: 512 µg/mL
[2]; [18]
  MIC: 512 µg/mL
[2]; [19]
  MIC: 512 µg/mL
[2]; [30]
  MIC: 512 µg/mL
[2]; [20]
  MIC: 512 µg/mL
[2]; [26]
  MIC: 512 µg/mL
[2]; [21]
  MIC: 512 µg/mL
[3]; [31]
  MIC: 4 µg/mL
[3]; [32]
  MIC: 2 µg/mL
[3]; [33]
  MIC: 4 µg/mL
[3]; [23]
  MIC: 8 µg/mL
[3]; [24]
  MIC: 8 µg/mL
[3]; P. aeruginosa isolate 29, strain 15545
  MIC: 128 µg/mL
[3]; [25]
  MIC: 128 µg/mL
[3]; [34]
  MIC: 128 µg/mL

## CCN1CCN(C(=O)N[C@@H](C(=O)N[C@@H]2C(=O)N3[C@@H]2SC(C)(C)[C@@H]3C(=O)O)c2ccccc2)C(=O)C1=O [Piperacillin]
[4]; [27]
  MIC: 4 µg/mL
[4]; [28]
  MIC: 4 µg/mL
[4]; E. cloacae isolate 21, strain 14661
  MIC: 8 µg/mL
[1]; A. calcoaceticus isolate 9, strain 8224
  MIC: 128 µg/mL
[2]; [29]
  MIC: 1024 µg/mL
[2]; [16]
  MIC: 1024 µg/mL
[2]; [17]
  MIC: 1024 µg/mL
[2]; [18]
  MIC: 1024 µg/mL
[2]; [21]
  MIC: 1024 µg/mL
[3]; [31]
  MIC: 128 µg/mL
[3]; [32]
  MIC: 32 µg/mL
[3]; [33]
  MIC: 128 µg/mL
[3]; [23]
  MIC: 1024 µg/mL
[3]; [25]
  MIC: 256 µg/mL
[3]; [35]
  MIC: 256 µg/mL
[3]; [34]
  MIC: 32 µg/mL
[3]; Pseudomonas aeruginosa, P. aeruginosa isolate 23, strain ATCC 27853
  MIC: 256 µg/mL

## NC[C@H]1O[C@H](O[C@H]2[C@H](O)[C@@H](O[C@H]3O[C@H](CO)[C@@H](O)[C@H](N)[C@H]3O)[C@H](N)C[C@@H]2N)[C@H](N)C[C@@H]1O [Tobramycin]
[4]; [27]
  MIC: 1 µg/mL
[4]; E. cloacae isolate 15, strain B5546
  MIC: 1 µg/mL
[1]; [13]
  MIC: 2 µg/mL
[2]; [15]
  MIC: 128 µg/mL
[2]; [17]
  MIC: 16 µg/mL
[2]; [30]
  MIC: 1 µg/mL
[2]; [20]
  MIC: 1 µg/mL
[2]; [26]
  MIC: 8 µg/mL
[3]; [22]
  MIC: 128 µg/mL
[3]; [23]
  MIC: 1 µg/mL
[3]; [25]
  MIC: 1 µg/mL
[3]; [35]
  MIC: 2 µg/mL
[3]; P. aeruginosa isolate 33, strain W5483-2
  MIC: 2 µg/mL

## KKSFFKKLTSVASSVLS [MBI21A14]
[5]
  MIC H103: >128 µg/mL
[6]
  MIC S. epi 0017: >128 µg/mL
[7]
  MIC C610: 128 µg/mL
[8]
  MIC E. coli 0111:B4: >128 µg/mL
[9]
  MIC E. faecalis: >128 µg/mL
[10]
  MIC K147: >128 µg/mL
  MIC SAP: >128 µg/mL
[11]
  MIC B. Subtilis: >128 µg/mL

## KKWWRRVLSGLKTAGPAIQSVLNK [MBI21A1]
[5]
  MIC H103: 64 µg/mL
[6]
  MIC S. epi 0017: 128 µg/mL
[7]
  MIC C610: 16 µg/mL
[8]
  MIC E. coli 0111:B4: 16 µg/mL
[9]
  MIC E. faecalis: >128 µg/mL
[10]
  MIC K147: >128 µg/mL
  MIC SAP: >128 µg/mL
[11]
  MIC B. Subtilis: >128 µg/mL

## KWKLFKKIGIGAVLKVLTTGLPALIS [CEME, reference compound]
[5]
  MIC: 8 µg/mL
[6]
  MIC: 16 µg/mL
[8]
  MIC: 5 µg/mL
[10]; S. aureus (K 147)
  MIC: 32 µg/mL
[10]; S. aureus (SAP0017)
  MIC: 24 µg/mL
[12]
  MIC: 64 µg/mL

## KWKLFKKKGTGAVLTVLTTGLPALIS [MBI29A3]
[5]
  MIC H103: 16 µg/mL
[6]
  MIC S. epi 0017: 16 µg/mL
[7]
  MIC C610: 8 µg/mL
[8]
  MIC E. coli 0111:B4: 8 µg/mL
[9]
  MIC E. faecalis: >128 µg/mL
[10]
  MIC K147: 32 µg/mL
  MIC SAP: 32 µg/mL
[11]
  MIC B. Subtilis: 16 µg/mL

## KWKSFIKKLTSVLKKVVTTALPALIS [MBI29A1]
[5]
  MIC H103: 16 µg/mL
[6]
  MIC S. epi 0017: 16 µg/mL
[7]
  MIC C610: 8 µg/mL
[8]
  MIC E. coli 0111:B4: 4 µg/mL
[9]
  MIC E. faecalis: 64 µg/mL
[10]
  MIC K147: 16 µg/mL
  MIC SAP: 16 µg/mL
[11]
  MIC B. Subtilis: 16 µg/mL

## KWKSFIKNLTKVLKKVVTTALPALIS [MBI29A2]
[5]
  MIC H103: 16 µg/mL
[6]
  MIC S. epi 0017: 16 µg/mL
[7]
  MIC C610: 8 µg/mL
[8]
  MIC E. coli 0111:B4: 8 µg/mL
[9]
  MIC E. faecalis: 64 µg/mL
[10]
  MIC K147: 16 µg/mL
  MIC SAP: 8 µg/mL
[11]
  MIC B. Subtilis: 8 µg/mL

## KWWRRALQGLKTAGPAIQSVLNK [MBI21A2]
[5]
  MIC H103: 128 µg/mL
[6]
  MIC S. epi 0017: >128 µg/mL
[7]
  MIC C610: 16 µg/mL
[8]
  MIC E. coli 0111:B4: 32 µg/mL
[9]
  MIC E. faecalis: >128 µg/mL
[10]
  MIC K147: >128 µg/mL
  MIC SAP: >128 µg/mL
[11]
  MIC B. Subtilis: >128 µg/mL

## MA-20: 20 carboxy terminal amino acids of melittin (MA) [reference compound]
[5]
  MIC: ≧64
[6]
  MIC: ≧64
[8]
  MIC: ≧64
[10]; S. aureus (K 147)
  MIC: ≧64
[10]; S. aureus (SAP0017)
  MIC: ≧64
[12]
  MIC: ≧64
